# Tests used:
# [1] = test system: Nanog; test: Luciferase reporter assay in NCCIT-Nanog cells; assay type: cell-based, human; settings: 10 μM, 48 h
# Method: It is known in the art that Nanog is a direct target of Oct4 and can be activated by other Oct4 inducing compounds. […] At higher concentrations of O4I3 (FIGS. 1B and 1C) less activity was observed. Moreover, the activity of zolpidem (N,N-Dimethyl-2-(6-methyl-2-p-tolylimidazo[1,2-a]pyridin-3-yl)acetamid) (100) containing a similar backbone to O4I3 was tested in both reporter cell lines. An approximate 2-fold induction at 10 μM was detected (FIG. 8 and FIG. 9).
# (§1) Luciferase reporter assay was performed using Beatle Juice Kit (PJK, Germany) according to the manufacturer's instruction. NCCIT-Oct and NCCIT-Nanog reporter cells were plated into a 24-well plate (100,000 cells/well) for 24 h. Cells were treated with compounds as indicated and harvested with luciferase lysis buffer (25 mM Tris phosphate buffer pH=7.8, 4 mM EGTA, 1% Triton X-100, 10% glycerol and 2 mM fresh DTT, filtered through 0.45 μm sterile filter) at 37° C. for 15 min. The protein concentration was determined by Bradford assay (Sigma, Germany). 100 μL reaction mixture containing luciferin and ATP was added to 20 μL cell lysis in a white plate (Gibco, Germany), incubated for 5 min and measured by a luminometer plate-reader. The activity was determined as percent luminous intensity of treated cells over control cells from at least five-independent experiments.
# [2] = test system: hiPSCs; test: iPSC single cell expansion, viability by MTT assay; assay type: cell-based, human; settings: much higher concentration and lower efficacy than O4I3
# Method: Since O4I3 induced sustainable expression of Oct4 and Nanog, the inventors questioned if it supports iPSC self-renewal in single cell expansion. Therefore, the viability of iPSCs, after replating Accutase®-dissociated single iPSCs, was tested in the presence or absence of O4I3. Rocki (Y-27632) was used for the first 24 h to increase iPSCs survival. A nearly 300% higher viability in cells treated with O4I3 (1 nM) was observed. Using 50 nM of O4I3 even 400% increase was observed (FIG. 2A). FACS analysis confirmed homologous expression of iPSCs markers, Tra-1-81 and Oct4, for at least 30 passages (FIG. 2B).
# iPSC single cell expansion was performed according to a well-established protocol known in the art (Watanabe et al, Nat Biotechnol, 2007, 25(6), 681-6). Briefly, iPSCs were dissociated with Accutase® as single cell suspension and re-seeded in a Geltrex-coated 96-well plate in the presence of Rock inhibitor for the first 24 h in combination with/without O4I3. Cell viability was performed in MTT assay as disclosed elsewhere (Cheng et al, Mol Oncol. 2016 June; 10(6):806-24).
# [3] = test system: human fibroblasts; test: Episome-based reprogramming of human fibroblasts, AP+ / iPSC-like colonies; assay type: cell-based; settings: 1 μM, lower efficiency
# Method: O4I3 was applied in commercially available episome-based reprogramming cocktail containing episomal vectors for overexpression of Oct4, Sox2, Klf4, Lin28 and L-Myc, as well as suppression of p53. In comparison to non-treated fibroblast cultures, 20 times more alkaline phosphatase (AP) positive colonies were detected in the presence of O4I3 at a concentration of 50 nM in two tested human primary fibroblasts (HF1 and HF2) (FIG. 13).
# It is known in the art that senescence or other unknown factors can confer donor fibroblasts resistance to reprogramming. Therefore, O4I3 was tested for its ability to enable reprogramming of refractory fibroblasts. Two human fibroblasts were selected. HFF-LTR7-EGFP at passage >40 carrying EGFP driven by a LTR7 promoter, which was activated during reprogramming, and HF5, isolated from a patient sample, both of which were resistant to an episome-based reprogramming approach (FIG. 13).
# Epi5® Episomal iPSC Reprogramming Kit (Life technologies) was used to reprogram human fibroblasts according to the manufacturer's protocol. Briefly, 5,000-50,000 cells were seeded in a 24-well plate for 24 h and then transfected with episomal vectors in N2 B27 medium. After 14 days, cells were re-suspended with 0.5 mM EDTA and re-plated in a 6-well plate in Essential®8 medium. Colonies were isolated after 3-4 weeks with the help of alkaline phosphatase (AP) live stain (Life technologies). Medium was refreshed daily.
# [4] = test system: methylated H3K4; test: In vitro H3K4 methylation assay (Epiquik histone demethylase H3K4 specific kit); assay type: biochemical; settings: micromolar concentrations
# Method: (§2) Epiquik histone demethylase (H3K4 specific) activity/inhibition assay kit (Epigentek, Biocat, Germany) was used to measure the protective effect of O4I3 and zolpidem on the methylation of H3K4. Their inhibitory effects on LSD1, KDM5s, and KDM4 were determined using Epigenase jarid demethylase activity/inhibition assay kit, Epigenase JMJD2 demethylase activity/inhibition assay kit and EpiQuik histone demethylase LSD1 activity/inhibition assay kit (Epigentek, Biocat, Germany). The total nuclear extraction was used according to manufacturer's instructions. For measuring KDM5A, KDM5B, KDM5C, and KDM5D activity, magnetic beads were used to immunoprecipitate the respective enzymes from 10^8 cells according to the manufacturer's instructions (Cell Signaling Technologies).
# [5] = test system: KDM5; test: KDM5 demethylase inhibition, whole-cell nuclear extraction; assay type: biochemical; settings: micromolar concentrations
# Source text: (§3) HMT and HDM are two major classes of enzymes, contributing to the regulation of histone methylation. Lysine-specific demethylase 1 (LSD1) and histone lysine demethylase 5 (KDM5, also known as JARID1) majorly catalyze demethylation of H3K4. A few KDM5 chemical inhibitors have been reported to inhibit demethylation of H3K4, leading to an increase of global methylated H3K4 in various cell types. The inventors tested the inhibitory effect of O4I3 on LSD1 and KDM5. KDM4 (also known as JMJD2), the HDM of H3K9 and H3K36, was also included.
# as §2
# [6] = test system: T1, KDM4; test: KDM4 (JMJD2) demethylase inhibition, nuclear extraction; assay type: biochemical; settings: micromolar concentrations
# T1 construct: other: whole-cell nuclear extraction; other: micromolar concentrations
# Source text: as §3, §2
# [7] = test system: Oct4; test: Luciferase reporter assay in NCCIT-Oct4 cells; assay type: cell-based, human; settings: 10 μM, 48 h
# [8] = test system: OCT4-promoter; test: Luciferase reporter assay in HEK-OCT4 cells; assay type: cell-based
# Method: In an effort to find such chemical structures able to induce pluripotency, a high-throughput screening (HTS) was performed. The screen was based on cellular luciferase reporter assays under the control of the promoter activity of a pluripotency-associated transcription factor (Oct4) in HEK293 cells.
# (§4) The inventors adopted Hantzsch thiazole synthesis (FIG. 20A) and produced a series of new O4I2-ester derivatives (FIG. 20B). Their activities were measured in three luciferase report cell lines, namely HEK-OCT4, driven by the activation of OCT4-promoter, and NCCIT-OCT4 and NCCIT-NANOG, whose intensities are controlled by endogenous OCT4 and NANOG respectively. […] Carboxylesterase 1 (CES1) is an enzyme majorly contributing to ester-to-acid conversion.
# [9] = test system: Oct4; test: Luciferase reporter assay in NCCIT-Oct4 cells; assay type: cell-based, human; settings: histone demethylase inhibitors, 48 h
# Method: The ability of the lead compound to induce Oct4 at translational level was tested in a luciferase reporter cell line in human embryonic carcinoma NCCIT cells driven by Oct4 response elements (NCCIT-Oct4). The compound lead to a nearly 10-fold induction of Oct4 at 10 nM compared to untreated cells (FIG. 1B). Consequently, the lead compound was named “Oct4 inducing compound 3” (O4I3).
# as §1
# [10] = test system: human fibroblasts; test: qRT-PCR of reprogramming associated genes in human fibroblasts; assay type: cell-based; set-up: expression of OCT4, SOX2, and E-Cadherin in HFs: dose or concentration left out as unconfirmed; settings: JIB-04 treated fibroblasts
# Method: Analyzing the effects of O4I3 on human fibroblasts, the activation of reprogramming associated genes, including an about 10-fold induction of Oct4, Nanog and Lin28, and an about 100-fold increase of Sox2 and E-Cadherin mRNA levels was detected. In particular, expression of several essential genes for reprogramming is equal to those in pluripotent stem cells, such as Esrrb, FGF2 and Sall4 (FIG. 12).
# Quantitative reverse-transcription real-time-PCR was performed using a Light Cycler 96 (Roche, Germany) following the manufacturer's protocol. Briefly, total RNA was isolated from cells using TRIzol (Qiagen, Germany) or NucleoSpin®RNA Plus (Macherey-Nagel, Germany). The same amount of RNA was used to reverse-transcriptional synthesize cDNA by using random primers ProtoScript® First Strand cDNA Synthesis Kit (NEB, Germany). qPCR was performed using the SYBR Green PCR master mix (qPCRBIO SyGreen Mix Lo-Rox, Nippon Genetics, Germany) and the primer pairs indicated below (MWG, Eurofins, Germany). Actin was used as an endogenous control. Data were normalized to the value of untreated cells showing the mean±SD of quadruplicates and are representative of at least three independent experiments.
# [11] = test system: promoter of Oct4; test: ChIP-qPCR of H3K4Me3 at the promoter of Oct4 in reprogramming-resistant fibroblasts; assay type: cell-based, human; settings: HF4, in combination with OSKM overexpression
# Source text: The importance of active tri-methylation of histone H3 lysine 4 (H3K4Me3) in promoting transcription factors binding to an ‘open’ chromatin state and thereby initiation of reprogramming is known in the art. In good agreement, the inventors found the abundance of H3K4Me3 in O4I3-treated reprogramming-resistant fibroblasts by immunostaining (FIG. 14) and immunoblotting (FIG. 5B). To directly study if O4I3 facilitated the binding of H3K4Me3 to the promoter of Oct4, a CHIP-qPCR experiment was performed.
# In reprogramming-resistant HF4, the level of H3K4Me3 at the promoter of OCT4 was increased by OSKM, but was still nearly 1,000-fold lower than that in PSCs (FIG. 19A). […] However, a clear influence on H3K4 methylation was not observed in the presence of KDM5B-, KDM5C-, or KDM5D-siRNA (FIG. 19A). […] Indeed, the reprogramming efficiency is negatively correlated with the expression of KDM5A in 11 HFs (FIG. 19D). Moreover, KDM5A siRNA increased the global level of H3K4Me3 in a dose-dependent manner (FIG. 19E). Of note, the alternation in the occupation of H3K27Me3 at the promoter of OCT4 was more refractory to chemical inhibition or genetic repression of KDM5s in the inventors' experiments (FIG. 19B). […]
# [12] = Metabolic analysis of O4I2 incubated with NCCIT cells (HPLC, LC/MS); assay type: in vitro ADME, human; settings: 24 hours, O4I2 50 μM
# Method: as §4
# NCCIT cells were treated with O4I2 (50 μM) in RPMI 1640 medium containing 2% BSA/FBS. Medium and cells were collected. Cell pellet was solved in 0.1% Triton-x. Protein precipitated by adding MeOH (pH=2) in lysate supernatant on ice for 2 h. Metabolites were extracted from the combined supernatant with ethyl acetate. After removal of organic solvent, residue was dissolved in acetonitrile, frozen immediately in liquid N2 and stored in −80° C. until further analysis.
# Samples obtained after purification were diluted to contain 20% MeOH. 100 μL of the sample was transferred to an HPLC vial and placed in the autosampler of an Agilent 1200 series HPLC machine. Sample (20 μL) was injected into the system and metabolites were separated on a C18 column (Kinetex 2.6 μm, C18, 100 Å, dimensions 100×2.1 mm, Phenomenex, Aschaffenburg, Germany). […]
structure (smiles),measurement,setting,value
"Cc1ccc(-c2nc3ccc(C)cn3c2CC(=O)N(C)C)cc1 [zolpidem, N,N-dimethyl-2-(6-methyl-2-p-tolylimidazo[1,2-a]pyridin-3-yl)acetamid, reference compound]",induction in NCCIT-Nanog reporter cells,[1],~2 fold
same,maintenance of iPSCs,[2],sustained the maintenance of iPSCs
same,reprogramming of resistant fibroblasts,[3],facilitated the reprogramming of resistant fibroblasts
same,protection of H3K4 methylation,[4],protected H3K4 methylation
same,inhibition of KDM5,[5],inhibited
same,inhibition of KDM4,[6],inhibited
same,induction in NCCIT-Oct4 reporter cells,[7],~2 fold
"O=C(O)c1csc(Nc2ccc(Cl)cc2)n1 [O4I2-COON, 2-(4-chlorophenylamino)thiazole-4-carboxylic acid]",activity in HEK-OCT4 cells,[8],inactive
"Clc1ccc(N/N=C(\c2ccccc2)c2ccccn2)nc1 [JIB-04, reference compound]",induction of OCT4 expression in NCCIT-OCT4 reporter cell line,[9],5 fold
same,"expression of OCT4, SOX2, and E-Cadherin in HFs",[10],induction
same,levels of H3K4Me3 at the promoter of OCT4,[11],significantly elevated
CCOC(=O)c1csc(Nc2ccc(Cl)cc2)n1 [O4I2],metabolic conversion in cells,[12],occurrence of ester-to-acid conversion
